Measured values taken from patent EP3875086A1, “DUAL-INHIBITORS OF CELLULAR NECROPTOSIS AND FERROPTOSIS FOR USE IN THE TREATMENT OF ORGAN TRANSPLANT PATIENTS” (Technische Universität Dresden, priority 2020, dated 2021).
“Also recorded” adds a separate entry of the source.

Columns and labels:
[1] = Murine kidney ischemia-reperfusion injury model; assay type: in vivo, C57BL/6 mice; conditions: mice, 30 min ischemia
Procedure: • Figure 1: Overview of chemical structures of different necrostatins. Structural differences between Nec-1f in comparison to known necroptosis inhibitors Nec-1 and Nec-1s. Highlighted are the main residues involved in facilitating protection from necroptosis and/or ferroptosis. • Figure 2: Biotinylation of Nec-1. Simplified scheme of linking the target molecule Nec-1 to a biotin anker. […] (A, B) Inhibition of cell death by Nec-1f in NIH3T3 cells was assessed by flow cytometry. Cells were treated with the ferroptosis inducer RSL-3 (1.13 µM) for 6 h with or without simultaneous substitution of necrostatins. The percentage of cells positive for annexinV and 7-AAD was recorded. (C, D) Viability of NIH3T3 cells after induction of ferroptosis. Cells were treated with 1.13 µM RSL-3 for 6 h and collected for flow cytometry. […] (A, B) Inhibition of necroptotic cell death by Nec-1f in NIH3T3 cells was assessed by flow cytometry. Cells were treated with the TNF, Birinapant and z-VAD-fmk (TSZ) to induce necroptosis. After 18 h necroptosis induction with or without simultaneous substitution of necrostatins the cells were harvested and stained for flow cytometry. The percentage of cells positive for annexinV and 7-AAD was recorded. (C, D) Viability of NIH3T3 cells 18h after induction of necroptosis via TSZ treatment. […] Animals were subjected to 30 min of ischemia after i.p. injection of 0.6 mg Nec-1f per kg bodyweight or the respective vehicle control in PBS. (A, B) After 48h mice were sacrificed and serum creatinine levels and serum urea levels were measured as markers of renal function and intoxication. Error bars represent standard deviation. • Figure 6: Synthesis of 5-[(7-Chloro-1H-indol-3-yl)methyl]-3-methyl-2-thioxo-imidazolidin-4-one (1-3; Nec-1f) according to example 2. • Figure 7: Synthesis of 5-[(3aS,4R,6aR)-2-Oxo-1,3,3a,4,6,6a-hexahydrothieno[3,4-d]imidazol-4-yl]-N-[[1-[2-[2-[2-[[3-[(1-methyl-5-oxo-2-thioxo-imidazolidin-4-yl)methyl]-1H-indol-7-yl]oxy]ethoxy]ethoxy]ethyl]triazol-4-yl]methyl]pentanamide (2-8; biotinylated Nec-1) according to example 3. […]

[2] = test system: NIH3T3 cells; experiment: Inhibition of RSL-3-induced ferroptosis, flow cytometry (annexinV / 7-AAD); assay type: cell-based, Murine; conditions: RSL-3 1.13 µM for 6 h, with simultaneous necrostatin
Procedure: (§1) • Figure 1: Overview of chemical structures of different necrostatins. Structural differences between Nec-1f in comparison to known necroptosis inhibitors Nec-1 and Nec-1s. Highlighted are the main residues involved in facilitating protection from necroptosis and/or ferroptosis. • Figure 2: Biotinylation of Nec-1. Simplified scheme of linking the target molecule Nec-1 to a biotin anker. […] (A, B) Inhibition of cell death by Nec-1f in NIH3T3 cells was assessed by flow cytometry. Cells were treated with the ferroptosis inducer RSL-3 (1.13 µM) for 6 h with or without simultaneous substitution of necrostatins. The percentage of cells positive for annexinV and 7-AAD was recorded. (C, D) Viability of NIH3T3 cells after induction of ferroptosis. Cells were treated with 1.13 µM RSL-3 for 6 h and collected for flow cytometry. […] (A, B) Inhibition of necroptotic cell death by Nec-1f in NIH3T3 cells was assessed by flow cytometry. […] The percentage of cells positive for annexinV and 7-AAD was recorded. […] (A, B) After 48h mice were sacrificed and serum creatinine levels and serum urea levels were measured as markers of renal function and intoxication. […]
(§2) Phosphatidylserine exposure to the outer cell membrane of apoptotic cells or at the inner plasma membrane of necrotic cells and incorporation of 7-AAD into necrotic cells were quantified by fluorescence-activated cell sorting (FACS) analysis. […]

[3] = test system: NIH3T3 cells; experiment: Inhibition of TNF/Birinapant/zVAD (TSZ)-induced necroptosis, flow cytometry (annexinV / 7-AAD); assay type: cell-based, Murine; conditions: TNF + Birinapant + z-VAD-fmk (TSZ), 18 h
Procedure: as §1, §2

[4] = 0.6 mg Nec-1f per kg bodyweight i.p. 15 min before ischemia, 48 h after reperfusion

For `CN1C(=O)C(Cc2c[nH]c3c(Cl)cccc23)NC1=S` (centres unmarked) [Nec-1f, 5-[(7-Chloro-1H-indol-3-yl)methyl]-3-methyl-2-thioxo-imidazolidin-4-one], the “protection in animal model of renal ischemia-reperfusion injury” value ([1]; 0.6 mg Nec-1f per kg bodyweight i.p.) was “protective”, the “serum creatinine levels (marker of renal function)” value [1, 4] was “reversed” and the “serum urea levels (intoxication marker)” value [1, 4] was “reversed”. For the same compound, the “assays used to detect ferroptosis (cell death / viability, annexinV and 7-AAD)” value [2] was “protects cells from undergoing ferroptosis; also recorded: reversed” and the “assays used to detect necroptosis (cell death / viability, annexinV and 7-AAD)” value [3] was “protects cells from undergoing necroptosis; also recorded: reversed”.
